Test results taken from patent US5449592A, “Silver halide color photographic light sensitive material for color proof and method for preparing color proof using the same” (Konica Corporation, priority 1988, dated 1995).

Assay: pKa of couplers, spectrophotometric method
Type: physicochemical
Details: spectrophotometric method (no asterisk); 2-butoxyethanol and water (30:70)
Excerpt: (§1) In this invention, a pKa value means a common logarithmic value of the reciprocal of a proton-dissociation equilibrium constant K at the active site of a coupler.
(§2) As described in, for example, J.C.S., Perkin I, 809(1973) and 1768(1973), J. Phot. Sci., 22,49(1974), E. Pelizzrtti(3M, Italia), C. Saini(Toino Vniv.) and J. Phot. Sci., 13,248(1985) B. P. Brand (ICI), a pKa value can be measured in a spectrophotometric method or a neutralization-titration mehtod, using a suitable solvent such as a mixture of water and organic solvent.
In the spectrophotometric method, a pka value of coupler is regarded as a pH value obtained in correspondence with the inflection point of a rerational curve obtained between the pH and absorbance of a coupler solution, utilizing the fact that there is a difference in absorbance between the coupler itself and the anion thereof.
To be more concrete, the above-mentioned coupler solution is prepared by the use of a mixture of 2-butoxyethanol and water (30:70) as a solvent. The concentration of the coupler solution is adjusted to the order of 1×10^-5 to 1×10^-2 M so that pKa values can readily be measured. The coupler solution is added with anhydrous potassium carbonate in an amount of 3 g per liter, and is further adjusted to be various pH values by adding hydrochloric acid and potassium hydroxide correspondingly. The spectral absorbance of each solution is then measured so as to obtain a relational curve made between the pH value and the spectral absorbance of each solution.
Certain of couplers have plural dissociable protons. In those cases, plural pKa values may be obtained. Among those values, however, each pKa value of this invention means a value measured in relation to making anionic the nucleus of a coupler capable of forming a dye upon coupling reaction with the oxidized product of a color developing agent.
(§3) Either of the above-described two measurement methods may be so selected out as to meet the characteristics of a coupler subjected to a measurement. When measuring one and the same coupler in the two methods, respectively, there are some differences between the resulted pKa values. Howerer, the difference in pKa value between a magenta coupler and yellow coupler used in the invention, i.e., a value of pKa 1-pKa 2, can be applied to the invention, provided that both of the pKa1 and pKa2 values are measured in one and the same method of the two.
In Table 1, pKa values with asterisks are values measured by the neutralization-titration method. The other valves without asterisk are measured by the spectrophotometric method.
Asterisks in Table 2 have the same mean as in Table 1.
Work on `CCCCCCCCCCCCOc1ccc(S(=O)(=O)Nc2ccc(CCCc3n[nH]c4c(Cl)c(C)nn34)cc2)cc1` [M-1] yielded a pKa of 10.24. For `CCCCCCCCCCCCCCCCCCS(=O)(=O)CC(C)c1n[nH]c2c(Cl)c(C)nn12` (stereo not drawn) [M-3], the pKa was 8.99. `CCCCCCCCC(CCCCCC)CS(=O)(=O)CCc1n[nH]c2c(Cl)c(C)nn12` (stereo not drawn) [M-4] showed a pKa of 9.11. For `CCCCCCCCC(CCCCCC)CS(=O)(=O)CCc1nn2c(C)n[nH]c2c1Cl` (stereo not drawn) [M-9], the pKa was 9.18. For `CCCCCCCCCCC(Oc1ccc(C(C)(C)c2ccc(O)cc2)cc1)C(=O)Nc1ccc(S(=O)(=O)CCc2n[nH]c3c(Cl)c(C)nn23)cc1` (stereo not drawn) [M-12], the pKa was 9.71. Work on `CCCCC(Oc1ccc(C(C)(C)CC)cc1C(C)(C)CC)C(=O)Nc1ccc(CCc2n[nH]c3c(Cl)c(CC)nn23)cc1` (stereo not drawn) [M-16] yielded a pKa of 10.30. For `CCCCOc1ccc(C(C)(C)CC(C)(C)C)cc1S(=O)(=O)CCCc1n[nH]c2c(Cl)c(C(C)C)nn12` [M-21], the pKa was 10.07. `CCCCCCCCCCCCCCCCS(=O)(=O)CCC(C)c1n[nH]c2c(Cl)c(C(C)C)nn12` (stereo not drawn) [M-22] gave a pKa of 9.70. Molecule `CCCCCCCCOc1ccc(C)cc1S(=O)(=O)CCS(=O)(=O)CCC(C)c1n[nH]c2c(Cl)c(C(C)C)nn12` (stereo not drawn) [M-26] has a pKa of 9.68. For `CCCCOc1ccc(C(C)(C)CC(C)(C)C)cc1S(=O)(=O)CCCc1n[nH]c2c(Cl)c(C(C)(C)C)nn12` [M-33], the pKa was 10.39. For `CCC(C)(C)c1ccc(OCC(=O)Nc2ccc(S(=O)(=O)CC(C)(C)c3n[nH]c4c(Cl)c(C(C)(C)C)nn34)cc2)c(C(C)(C)CC)c1` [M-40], the pKa was 9.90. `CCCCOc1ccc(NS(=O)(=O)c2cc(C(C)(C)CC(C)(C)C)ccc2OCCCC)cc1S(=O)(=O)Nc1ccc(CCCc2n[nH]c3c(Cl)c(C(C)(C)C)nn23)cc1` [M-44] showed a pKa of 10.80. In the case of `CCCCOc1ccc(C(C)(C)CC(C)(C)C)cc1Sc1c(SCC)nn2c(CCNC(=O)C(CCCC)Oc3ccc(C(C)(C)CC)cc3C(C)(C)CC)n[nH]c12` (stereo not drawn) [M-49], the pKa is reported as 9.43. With `CCC(C)(C)c1ccc(OCCCC(=O)Nc2ccc(Cl)c(NC(=O)C(Oc3ccc(S(=O)(=O)c4ccc(OCc5ccccc5)cc4)cc3)C(=O)C(C)(C)C)c2)c(C(C)(C)CC)c1` (stereo not drawn) [Y-8] the pKa was 8.60.

Assay: pKa of couplers, neutralization-titration method
Type: physicochemical
Details: neutralization-titration method (asterisk)
Excerpt: as §1
as §2, with “solvent. […]” for “solvent.”
Certain of couplers have plural dissociable protons. […] Among those values, however, each pKa value of this invention means a value measured in relation to making anionic the nucleus of a coupler capable of forming a dye upon coupling reaction with the oxidized product of a color developing agent.
as §3, with “When measuring one and the same coupler in the two methods, respectively, there are some differences between the resulted pKa values.” left out
In Table 1, pKa values with asterisks are values measured by the neutralization-titration method. […]
`CCCCCCCCCCCCCC(=O)Nc1ccc(Cl)c(NC2=NN(c3c(Cl)cc(Cl)cc3Cl)C(=O)C2)c1` [MC-1] showed a pKa of 10.07.
